{"source": "paper PMC10960464", "about": "“In vivo antimalarial effect of 1-hydroxy-5,6,7-trimethoxyxanthone isolated from Mammea siamensis T. Anders. flowers: pharmacokinetic and acute toxicity studies” (BMC Complementary Medicine and Therapies, 2024)", "key": {"[1]": {"system": "P. falciparum chloroquine-resistant (FCR3) strain", "conditions": "cited from earlier work"}, "[2]": {"conditions": "cited from earlier work"}, "[3]": {"system": "Plasmodium berghei ANKA strain", "experiment": "In vivo 4-day suppressive test of P. berghei in ICR mice", "set-up": "species or system Plasmodium berghei (in ICR mice)", "conditions": "mean ± SEM, n = 5", "experimental": "Wild-type P. berghei ANKA strain was obtained from Thomas F. McCutchan (BEI Resources, NIAID, NIH). P. berghei-infected red blood cells were administered intraperitoneally to donor mice. When parasitemia levels reached 20–30%, blood was collected from the heart using a cardiac puncture procedure and placed in a vacutainer heparinized tube for injection into experimental animals.\nA 4-day suppressive test was used to measure the schizonticidal activity of HTX in P. berghei-infected ICR mice. This test was performed according to a previous method, with some modifications. All mice were intraperitoneally injected with 1 × 10^7P. berghei ANKA-parasitized erythrocytes. Treatment was initiated four hours after the mice were infected with Plasmodium parasite on the first day (D0). […] For each experimental group, animals received daily intraperitoneal doses of 1, 3, or 10 mg/kg body weight of HTX. Mice received each substance daily for 4 days (D0-D3). On the fifth day (D4), parasitemia was determined using Giemsa-stained thin blood smears prepared from the tails of each mouse. Mice were euthanized at the end of the experiment by intraperitoneal injection of pentobarbital (200 mg/kg body weight).\nFinally, the percentage suppression of parasite growth was calculated using the following equation: [drawing 1]"}, "non-infected ICR mice": {"system": "non-infected ICR mice", "experiment": "Acute toxicity test, single intraperitoneal dose, 14-day observation, liver and kidney biochemical parameters", "assay_type": "in vivo", "experimental": "(§1) Acute HTX toxicity was determined in non-infected ICR mice aged 6–8 weeks and weighing 25–35 g using the Organization for Economic Cooperation and Development standard criteria. Fifteen mice were randomly divided into three groups (n = 5): untreated, negative control, and HTX-treated. All mice fasted for three hours prior to the experiment, and only drinking water was available. HTX was dissolved in 2% DMSO in NSS at 50 mg/kg body weight. In the treatment group, the first mouse was intraperitoneally given a single dose of 50 mg/kg body weight HTX, whereas in the negative control group, the first mouse was intraperitoneally given 200 µL of 2% DMSO in NSS. […] All mice were anaesthetized using pentobarbital (60 mg/kg body weight) by intraperitoneal injection. Blood samples were collected via cardiac puncture into heparinized tubes for biochemical analyses. The liver and kidney tissues were collected for histological examination. The mice were subsequently euthanized with an intraperitoneal injection of pentobarbital (200 mg/kg body weight)."}, "[4]": {"system": "liver and kidney tissues of ICR mice", "experiment": "Histopathological examination of liver and kidney tissues (H&E) in the acute toxicity test", "assay_type": "in vivo", "conditions": "50 mg/kg single intraperitoneal dose", "experimental": "as §1\n[…]. In brief, all tissues were fixed in 10% buffered formalin, dehydrated using a gradient series of ethanol solutions, cleaned with xylene, and deposited in a paraffin mold. The paraffin blocks were then sectioned to a thickness of 5 μm using a rotary microtome, transferred to glass slides, and stained with hematoxylin and eosin (H&E) solution. […]"}, "[5]": {"experiment": "In vivo pharmacokinetic study after intraperitoneal administration, plasma LC-MS/MS", "conditions": "5 mg/kg intraperitoneal, ICR mice, n = 5", "experimental": "A pharmacokinetic study was conducted in non-infected ICR mice aged 6–8 weeks and weighing 25–35 g. Male ICR mice were randomly divided into two groups, each consisting of five mice. The first group is a negative control group and was injected with 150 µL of 2% DMSO in NSS, whereas the second group is a test group that was administered 5 mg/kg body weight of HTX compound intraperitoneally. Blood ([…]) was taken from the tail vein prior to administration of test compounds (0 h) and after at, 0.5, 1, 2, 3, 5, 8, 24, 48, and 72 h. Blood samples were collected in microtubes containing ethylenediaminetetraacetic acid (EDTA) and kept on ice until they were centrifuged at 3,000 × g for 10 min at 4 °C to allow the collection of plasma, which was stored at − 80 °C.\nLC-MS/MS (Agilent 1290 infinity LC and Agilent 6490 triple quadrupole mass spectrometer) with an electrospray ionization (ESI, Agilent Technologies, USA) source was used to detect HTX in the plasma. Using a VertiSepTM USP C18 column (4.6 mm × 150 mm, particle size = 5 μm; Vertical Chromatography Co., ltd., Nonthaburi, Thailand), the separation was achieved. Acetonitrile:1 mM formic acid (7:3) was used as the mobile phase and was maintained at a constant flow rate of 0.5 mL/min. The injection volume was 1 µL, and column temperature was maintained at 30 °C. The following operating conditions for the MS were optimized: the source temperature was kept at 200 °C, the ion spray voltage for the positive mode was set at 3 KV, and the collision energy for HTX was set at 43 V. Nitrogen was used as the collision gas. The nebulizer and sheath gas flow rates were set to 14 and 11 L/min, respectively. The MassHunter qualitative analysis software was used to acquire the data (Agilent Technologies, Inc. Headquarters, CA, USA). HTX was quantified using the transitions for HTX at m/z 303→199 in the multiple reaction monitoring (MRM) mode.\nBy dissolving precisely weighed HTX and reference compounds in acetonitrile, stock HTX solutions were prepared. By diluting the stock solutions using a mixture of acetonitrile and water (2:8, v/v), a series of working solutions with concentrations between 7.81 and 1000 ng/mL were prepared. All solutions were stored at 4 °C. By spiking the blank plasma (50 µL) with 25 µL of standard working solutions, HTX calibration standards (0.78, 1.56, 3.13, 6.25, 12.5, 25.0, 50, 125, and 250 ng/mL) were prepared. The extraction solvent ethyl acetate (0.5 mL) was added to 75 µL of HTX-spiked plasma. The sample was vortexed for 1 min, followed by ultrasonic vibration for 15 min. Then, centrifugation for 10 min at 15,000 × g was done. The upper organic layer was transferred to a new microtube and dried via evaporation. The dried extract was reconstituted in 150 µL of 50% (v/v) acetonitrile in water. HTX recovery experiments were performed to confirm extraction efficacy. The effectiveness of liquid-liquid extraction was then determined by comparing the peak regions of the extracted HTX-spiked plasma with those of HTX spiked with blank plasma extract.\nThe plasma concentration-time profiles of HTX were determined by non-compartmental analysis with PKSolver 2.0 software. […] Additionally, the apparent volume of the central or plasma compartment, apparent volume of the peripheral compartment, transfer rate constant from the central compartment to the peripheral compartment, and transfer rate constant from the peripheral to central compartment were calculated using the two-compartment model."}, "[6]": {"system": "Plasmodium falciparum K1 strain", "conditions": "P. falciparum K1 strain (chloroquine-resistant), in vitro; read-out: IC50, antiplasmodial activity; cited from earlier work"}, "[7]": {"conditions": "3 mg/kg intraperitoneal daily D0-D3, read on D4, P. berghei-infected ICR mice"}, "[8]": {"conditions": "1 mg/kg intraperitoneal daily D0-D3, read on D4, P. berghei-infected ICR mice"}, "[9]": {"conditions": "10 mg/kg intraperitoneal daily D0-D3, read on D4, P. berghei-infected ICR mice"}}, "note": "Where “and” joins values, the source holds several entries; their conditions need not be identical. Equal entries are not always repeated. Entries after “also recorded” stand apart in the source; their conditions may differ. Where two headings read alike, the source gives them in different places.", "data": [{"smiles": "COc1c(O)cc2oc3cc(O)c(CC=C(C)C)c(O)c3c(=O)c2c1CC=C(C)C", "note": "[Α-Mangostin]", "values": [{"measurement": "IC50", "setting": "[1]", "result": 0.2, "unit": "µM"}]}, {"smiles": "C[C@H]1[C@@H](O)O[C@@H]2O[C@@]3(C)CC[C@H]4[C@H](C)CC[C@@H]1[C@@]24OO3", "note": "[dihydroartemisinin]", "values": [{"measurement": "elimination half-life", "setting": "[2]", "result": "0.9 to 2", "unit": "h"}]}, {"smiles": "C[C@H]1[C@H](OC(=O)CCC(=O)O)O[C@@H]2O[C@@]3(C)CC[C@H]4[C@H](C)CC[C@@H]1[C@@]24OO3", "note": "[Artesunate, reference compound]", "values": [{"measurement": "% parasitemia", "setting": "[3]; [7]", "result": "3.84 ± 0.54", "unit": "%"}, {"measurement": "elimination half-life", "setting": "[2]; in vivo", "result": "0.8 to 1.2", "unit": "h"}]}, {"smiles": "COc1cc2c(=O)c3c(O)cccc3oc2c(OC)c1OC", "note": "[HTX, 1-hydroxy-5,6,7-trimethoxyxanthone]", "values": [{"measurement": "% parasitemia", "setting": "[3]; [8]", "result": "21.91 ± 2.25", "unit": "%"}, {"measurement": "% suppression", "setting": "[3]; [8]", "result": "34.56% and 34.56 ± 4.91 ^a, b, d, e %"}, {"measurement": "% parasitemia", "setting": "[3]; [7]", "result": "17.79 ± 2.31", "unit": "%"}, {"measurement": "% suppression", "setting": "[3]; [7]", "result": "46.88% and 46.88 ± 3.96 ^a, b, c, e %"}, {"measurement": "% parasitemia", "setting": "[3]; [9]", "result": "8.62 ± 1.21", "unit": "%"}, {"measurement": "% suppression", "setting": "[3]; [9]", "result": "74.26% and 74.26 ± 3.32 ^a, b, c, d %"}, {"measurement": "mortality", "setting": "non-infected ICR mice; 50 mg/kg single intraperitoneal dose, 24 h and following 14 days", "result": "No mortality; also recorded: all treated mice were alive; also recorded: did not cause mortality; also recorded: no behavioral changes or mortality"}, {"measurement": "effect on biochemical parameters of the liver and kidney functions", "setting": "non-infected ICR mice; 50 mg/kg single intraperitoneal dose, versus untreated and negative controls", "result": "no significant alterations; also recorded: did not affect the liver and kidney functions"}, {"measurement": "median lethal dose (LD50)", "setting": "non-infected ICR mice; intraperitoneal, single dose, 14 days", "result": "greater than 50 mg/kg body weight"}, {"measurement": "kidney histology (H&E)", "setting": "[4]", "result": "no histological changes; also recorded: normal; also recorded: did not present with lesions"}, {"measurement": "liver histology (H&E)", "setting": "[4]", "result": "no histological changes; also recorded: normal hepatocyte histology"}, {"measurement": "CL/F", "setting": "[5]; plasma", "result": "0.020 ± 0.002 (mg/kg)/(ng/mL)/h"}, {"measurement": "MRT0−∞", "setting": "[5]; plasma", "result": "14.79 h and 14.795 ± 0.515 h"}, {"measurement": "Vz/F", "setting": "[5]; plasma", "result": "0.405 ± 0.014 (mg/kg)/(ng/mL)"}, {"measurement": "t1/2 (elimination half-life)", "setting": "[5]; plasma", "result": "13.881 ± 1.231", "unit": "h"}, {"measurement": "K21 (rate constant, peripheral to central compartment)", "setting": "[5]; two-compartment model", "result": "0.156 ± 0.002", "unit": "h⁻¹"}, {"measurement": "V1 (apparent volume, central or plasma compartment)", "setting": "[5]; two-compartment model", "result": "1.633 ± 0.003 (mg/kg)/(ng/mL)"}, {"measurement": "V2 (apparent volume, peripheral compartment)", "setting": "[5]; two-compartment model", "result": "19.808 ± 2.031 (mg/kg)/(ng/mL)"}, {"measurement": "MRT inf", "setting": "[5]; male, ICR, mouse, plasma, ip, 5 mg/kg, plasma, read-out: MRT0−∞", "result": 14.8, "unit": "h"}, {"measurement": "half-life", "setting": "[5]; male, ICR, mouse, plasma, ip, 5 mg/kg, plasma, read-out: t1/2 (elimination half-life) (converted)", "result": 13.9, "unit": "h"}, {"measurement": "Cmax", "setting": "[5]; male, mouse, ip, plasma", "result": "94 ± 3.21", "unit": "ng/mL"}, {"measurement": "Tmax", "setting": "[5]; male, mouse, ip, plasma", "result": "0.5 ± 0.021", "unit": "h"}, {"measurement": "AUC(0-inf)", "setting": "[5]; male, mouse, ip, plasma, non-compartmental", "result": "247 ± 5.33", "unit": "ng·h/mL"}, {"measurement": "AUC(0-t)", "setting": "[5]; male, mouse, ip, plasma, non-compartmental, read-out: AUC0 − 48 h", "result": "226 ± 4.74", "unit": "ng·h/mL"}, {"measurement": "IC50", "setting": "[6]", "result": 9.57, "unit": "µM"}]}, {"smiles": "CC(C)(N)CNC(=O)C[C@H]1CC[C@]2(CC1)OO[C@]1(O2)C2CC3CC(C2)CC1C3", "note": "[arterolane]", "values": [{"measurement": "elimination half-life", "setting": "[2]; in vivo", "result": "2 to 4", "unit": "h"}]}, {"smiles": "CCN(CC)CCCC(C)Nc1ccnc2cc(Cl)ccc12", "note": "(stereo not drawn) [Chloroquine, reference compound]", "values": [{"measurement": "% parasitemia", "setting": "[3]; [7]", "result": "3.42 ± 0.35", "unit": "%"}, {"measurement": "% suppression", "setting": "[3]; [7]", "result": "92.07 ± 4.21 ^c, d, e %"}, {"measurement": "% suppression", "setting": "[3]; 3 mg/kg intraperitoneal daily D0-D3, read on D4, P. berghei-infected ICR mice, listed as chloroquine", "result": 92.07, "unit": "%"}]}]}
